# Data as given in PMC3048380, “Crystal Structure of an Integron Gene Cassette-Associated Protein from Vibrio cholerae Identifies a Cationic Drug-Binding Module” (PLoS ONE, 2011).
# Read-outs that look alike come from different tables or passages of the source.
# Columns and labels:
# Cass2 = Cass2 (Vibrio cholerae, UniProt D0VX23); conditions: tryptophan fluorescence quenching, 24°C, pH 7.5; read-out: Ligand binding affinity KD, Cass2 wt
# Method: Fluorescence assays were used to detect binding of compounds to Cass2 and related mutants. Concentrated ligand solutions in Buffer B were titrated into a 400 µl sample of protein (180 nM in Buffer B) and Trp fluorescence monitored.
# Fluorescence intensities were recorded at 22°C with a PerkinElmer LS55 fluorescence spectrophotometer using a 1 cm×0.2 cm quartz cell. […] Thus, fluorescence quenching was monitored by recording emission at 350 nm for all samples following excitation at 295 nm (slit widths 10 and 5 nm, respectively) with an integration time of 5 s. All readings were corrected for buffer background emission and sample dilution. Inner-filter effects were measured by titrating each compound into a 1.3 µM sample of tryptophan in Buffer B and the relative fluorescence quenching (ΔF) corrected as follows [64]:
# ΔF = (F 0−F C (F W0/F WC))/F 0 where F 0 = fluorescence intensity of protein sample, F C = fluorescence intensity of protein with added compound, F W0 = fluorescence intensity of free tryptophan solution, F WC = fluorescence of tryptophan solution with added compound.
# Standard deviation was calculated for the individual ΔF values from three independent experiments. […]
# (E134Q)Cass2 = (E134Q)Cass2 (Vibrio cholerae, UniProt D0VX23, E134Q); conditions: pH 7.5; read-out: Ligand binding affinity KD, Cass2 E134Q
# BmrR [1] = conditions: isothermal titration calorimetry binding assays; read-out: Ligand binding affinity KD, BmrR wt; cited from earlier work
# BmrR [2] = conditions: equilibrium dialysis methods; read-out: Ligand binding affinity KD, BmrR wt; cited from earlier work
Molecule,Kd (Cass2) [nM],Kd ((E134Q)Cass2) [nM],Kd (BmrR [1]) [nM],Kd (BmrR [2]) [nM]
"c1ccc([P+](c2ccccc2)(c2ccccc2)c2ccccc2)cc1 [tetraphenylphosphonium (TPP), tetraphenylphosphonium chloride]",200 ± 80,200 ± 130,74000 ± 20500,100000
benzalkonium chloride,100,300 ± 60,,
